Experiments:
TRβ = biological target: T1, TRβ (Homo sapiens, UniProt P10828); test: LanthaScreen TR-FRET Thyroid Receptor beta Coactivator Assay (in vitro binding activity); conditions: TR beta-LBD
T1 construct: 5 μL of 4×TR beta/alfa-LBD; purchased Invitrogen PV4686
T1 sequence (P10828 217-461 limits assumed): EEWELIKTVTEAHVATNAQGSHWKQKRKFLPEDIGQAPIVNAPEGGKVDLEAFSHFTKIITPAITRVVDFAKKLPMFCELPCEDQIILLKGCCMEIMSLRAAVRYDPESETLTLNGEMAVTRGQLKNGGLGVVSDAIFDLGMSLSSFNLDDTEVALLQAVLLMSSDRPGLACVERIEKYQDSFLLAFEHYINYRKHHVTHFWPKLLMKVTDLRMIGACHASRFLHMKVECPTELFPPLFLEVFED
Method: (§1) 2. Detection of the Binding Activity of the Compound of the Present Invention to TRα or TRβ In Vitro
(§2) Test Materials • LanthaScreen TR-FRET Thyroid Receptor beta Coactivator Assay kit was purchased from Invitrogen, Cat. No. PV4686; • LanthaScreen TR-FRET Thyroid Receptor alfa Coactivator Assay kit was purchased from Invitrogen, Cat. No. PV4687.
(§3) The method was experimented with LanthaScreen TR-FRET Thyroid Receptor beta/alfa Coactivator Assay kit. The test compound was dissolved in DMSO and diluted 3 times to a total of 10 concentrations, and then diluted with TR-FRET Coregulator Buffer C in the kit to form a solution containing 2% DMSO, 10 μL of the solution containing 2% DMSO was taken into a 384-well plate, then 5 μL of 4×TR beta/alfa-LBD, 5 μL of a mixture containing 0.4 μM fluorescein-SRC2-2 and 8 nM Tb anti-GST antibody were added into each well, mixed thoroughly, and incubated at room temperature for 1 h in the dark. After 1 h, BMG LABTECH's PHERAstar FSX microplate reader was used to read the fluorescence value (RFU) at […]. The TR-FRET ratio was calculated by dividing the emission signal at 520 nm by the emission signal at 495 nm. Graph Pad Prism 5 software was used to draw the curve and calculate the EC50 value. The in vitro binding activity test results of some of the compounds of the examples of the present invention are shown in Table 1 below.

TRα = biological target: T2, TRα (Homo sapiens, UniProt P10827); test: LanthaScreen TR-FRET Thyroid Receptor alfa Coactivator Assay (in vitro binding activity); conditions: TR alfa-LBD
T2 construct: 5 μL of 4×TR beta/alfa-LBD; purchased Invitrogen PV4687
Method: as §1, §2, §3

T2 sequence (P10827 163-410 isoform P10827-2 limits assumed, other chains not shown): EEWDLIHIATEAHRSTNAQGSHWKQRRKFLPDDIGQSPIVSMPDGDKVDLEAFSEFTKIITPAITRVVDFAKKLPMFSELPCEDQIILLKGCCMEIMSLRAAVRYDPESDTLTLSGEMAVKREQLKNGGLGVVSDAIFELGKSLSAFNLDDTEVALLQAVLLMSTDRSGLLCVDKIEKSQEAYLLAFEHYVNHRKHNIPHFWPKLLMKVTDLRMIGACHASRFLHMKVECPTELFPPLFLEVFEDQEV

SMILES	EC50 (TRβ) [µM]	EC50 (TRα) [µM]
CN1CCc2cc(Oc3c(Cl)cc(-n4nc(C#N)c(=O)[nH]c4=O)cc3Cl)ccc2C1=O [Example 2, 2-(3,5-dichloro-4-((2-methyl-1-oxo-1,2,3,4-tetrahydroisoquinolin-6-yl)oxy)phenyl)-3,5-dioxo-2,3,4,5-tetrahydro-1,2,4-triazine-6-carbonitrile]	0.1	1.47
O=C1c2ccc(Oc3c(Cl)cc(-n4ncc(=O)[nH]c4=O)cc3Cl)cc2CCN1Cc1cccnn1 [Example 25, 2-(3,5-dichloro-4-((1-oxo-2-(pyridazin-3-ylmethyl)-1,2,3,4-tetrahydroisoquinolin-6-yl)oxy)phenyl)-1,2,4-triazine-3,5(2H,4H)-dione]	0.241	> 100
N#Cc1nn(-c2cc(Cl)c(Oc3ccc4c(c3)C(=O)NCC4)c(Cl)c2)c(=O)[nH]c1=O [Example 9, 2-(3,5-dichloro-4-((1-oxo-1,2,3,4-tetrahydroisoquinolin-7-yl)oxy)phenyl)-3,5-dioxo-2,3,4,5-tetrahydro-1,2,4-triazine-6-carbonitrile]	> 10	> 100
N#Cc1nn(-c2cc(Cl)c(Oc3ccc4c(=O)[nH]ccc4c3)c(Cl)c2)c(=O)[nH]c1=O [Example 19, 2-(3,5-Dichloro-4-((1-oxo-1,2-dihydroisoquinolin-6-yl)oxy)phenyl)-3,5-dioxo-2,3,4,5-tetrahydro-1,2,4-triazine-6-carbonitrile]	0.501	> 100
N#Cc1nn(-c2cc(Cl)c(Oc3ccc4c(c3)CCN(COCC(F)(F)F)C4=O)c(Cl)c2)c(=O)[nH]c1=O [Example 14, 2-(3,5-Dichloro-4-((1-oxo-2-((2,2,2-trifluoroethoxy)methyl)-1,2,3,4-tetrahydroisoquinolin-6-yl)oxy)phenyl)-3,5-dioxo-2,3,4,5-tetrahydro-1,2,4-triazine-6-carbonitrile]	0.03	0.226
O=C1c2ccc(Oc3c(Cl)cc(-n4ncc(=O)[nH]c4=O)cc3Cl)cc2CCN1CC1CCOCC1 [Example 23, 2-(3,5-dichloro-4-((1-oxo-2-((tetrahydro-2H-pyran-4-yl)methyl)-1,2,3,4-tetrahydroisoquinolin-6-yl)oxy)phenyl)-1,2,4-triazine-3,5(2H,4H)-dione]	0.013	0.386
CC(C)OCN1CCc2cc(Oc3c(Cl)cc(-n4nc(C#N)c(=O)[nH]c4=O)cc3Cl)ccc2C1=O [Example 13, 2-(3,5-Dichloro-4-((2-(isopropoxymethyl)-1-oxo-1,2,3,4-tetrahydroisoquinolin-6-yl)oxy)phenyl)-3,5-dioxo-2,3,4,5-tetrahydro-1,2,4-triazine-6-carbonitrile]	0.013	0.073
N#Cc1nn(-c2cc(Cl)c(Oc3ccc4c(c3)NC(=O)CC4)c(Cl)c2)c(=O)[nH]c1=O [Example 8, 2-(3,5-dichloro-4-((2-oxo-1,2,3,4-tetrahydroquinolin-7-yl)oxy)phenyl)-3,5-dioxo-2,3,4,5-tetrahydro-1,2,4-triazine-6-carbonitrile]	> 10	> 100
N#Cc1nn(-c2cc(Cl)c(Oc3ccc4c(c3)CCN(CC3CCOCC3)C4=O)c(Cl)c2)c(=O)[nH]c1=O [Example 12, 2-(3,5-Dichloro-4-((1-oxo-2-((tetrahydro-2H-pyran-4-yl)methyl)-1,2,3,4-tetrahydroisoquinolin-6-yl)oxy)phenyl)-3,5-dioxo-2,3,4,5-tetrahydro-1,2,4-triazine-6-carbonitrile]	0.021	0.451
N#Cc1nn(-c2cc(Cl)c(Oc3ccc4c(c3)CCN(Cc3ccccc3)C4=O)c(Cl)c2)c(=O)[nH]c1=O [Example 18, 2-(4-((2-Benzyl-1-oxo-1,2,3,4-tetrahydroisoquinolin-6-yl)oxy)-3,5-dichlorophenyl)-3,5-dioxo-2,3,4,5-tetrahydro-1,2,4-triazine-6-carbonitrile]	0.192	> 100

Second part, the compound after the results:

EC50 (TRβ) [µM]	EC50 (TRα) [µM]	SMILES
0.065	0.558	O=C1c2ccc(Oc3c(Cl)cc(-n4ncc(=O)[nH]c4=O)cc3Cl)cc2CCN1c1ccncc1 [Example 48, 2-(3,5-dichloro-4-((1-oxo-2-(pyridin-4-yl)-1,2,3,4-tetrahydroisoquinolin-6-yl)oxy)phenyl)-1,2,4-triazine-3,5(2H,4H)-dione]
0.0046	0.181	O=C1c2ccc(Oc3c(Cl)cc(-n4ncc(=O)[nH]c4=O)cc3Cl)cc2CCN1Cc1cc(F)cc(F)c1 [Example 32, 2-(3,5-dichloro-4-((2-(3,5-difluorobenzyl)-1-oxo-1,2,3,4-tetrahydroisoquinolin-6-yl)oxy)phenyl)-1,2,4-triazine-3,5(2H,4H)-dione]
0.769	> 100	N#Cc1nn(-c2cc(Cl)c(Oc3ccc4c(c3)CCN(c3cccnc3)C4=O)c(Cl)c2)c(=O)[nH]c1=O [Example 49f, 2-(3,5-dichloro-4-((1-oxo-2-(pyridin-3-yl)-1,2,3,4-tetrahydroisoquinolin-6-yl)oxy)phenyl)-3,5-dioxo-2,3,4,5-tetrahydro-1,2,4-triazine-6-carbonitrile]
0.12	0.274	O=C1c2ccc(Oc3c(Cl)cc(-n4ncc(=O)[nH]c4=O)cc3Cl)cc2CCN1c1ncccn1 [Example 50, 2-(3,5-dichloro-4-((1-oxo-2-(pyrimidin-2-yl)-1,2,3,4-tetrahydroisoquinolin-6-yl)oxy)phenyl)-1,2,4-triazine-3,5(2H,4H)-dione]
0.017	0.156	O=C1c2ccc(Oc3c(Cl)cc(-n4ncc(=O)[nH]c4=O)cc3Cl)cc2CCN1Cc1ccccc1F [Example 33, 2-(3,5-dichloro-4-((2-(2-fluorobenzyl)-1-oxo-1,2,3,4-tetrahydroisoquinolin-6-yl)oxy)phenyl)-1,2,4-triazine-3,5(2H,4H)-dione]
0.08	> 100	N#Cc1nn(-c2cc(Cl)c(Oc3ccc4c(c3)CCN(Cc3ccc(F)c(Cl)c3)C4=O)c(Cl)c2)c(=O)[nH]c1=O [Example 35d, 2-(3,5-dichloro-4-((2-(3-chloro-4-fluorobenzyl)-1-oxo-1,2,3,4-tetrahydroisoquinolin-6-yl)oxy)phenyl)-3,5-dioxo-2,3,4,5-tetrahydro-1,2,4-triazine-6-carbonitrile]
0.214	> 100	N#Cc1nn(-c2cc(Cl)c(Oc3ccc4c(c3)CCN(c3ccccn3)C4=O)c(Cl)c2)c(=O)[nH]c1=O [Example 47f, 2-(3,5-dichloro-4-((1-oxo-2-(pyridin-2-yl)-1,2,3,4-tetrahydroisoquinolin-6-yl)oxy)phenyl)-3,5-dioxo-2,3,4,5-tetrahydro-1,2,4-triazine-6-carbonitrile]
0.039	0.161	O=C1c2ccc(Oc3c(Cl)cc(-n4ncc(=O)[nH]c4=O)cc3Cl)cc2CCN1c1ccccn1 [Example 47]
0.034	> 100	N#Cc1nn(-c2cc(Cl)c(Oc3ccc4c(c3)CCN(Cc3cccc(F)c3)C4=O)c(Cl)c2)c(=O)[nH]c1=O [Example 31d, 2-(3,5-dichloro-4-((2-(3-fluorobenzyl)-1-oxo-1,2,3,4-tetrahydroisoquinolin-6-yl)oxy)phenyl)-3,5-dioxo-2,3,4,5-tetrahydro-1,2,4-triazine-6-carbonitrile]
0.14	> 100	Cc1ccc(N2CCc3cc(Oc4c(Cl)cc(-n5nc(C#N)c(=O)[nH]c5=O)cc4Cl)ccc3C2=O)cc1 [Example 27, 2-(3,5-dichloro-4-((1-oxo-2-(p-tolyl)-1,2,3,4-tetrahydroisoquinolin-6-yl)oxy)phenyl)-3,5-dioxo-2,3,4,5-tetrahydro-1,2,4-triazine-6-carbonitrile]
0.472	> 100	N#Cc1nn(-c2cc(Cl)c(Oc3ccc4c(c3)CCN(CO)C4=O)c(Cl)c2)c(=O)[nH]c1=O [Example 39, 2-(3,5-dichloro-4-((2-(hydroxymethyl)-1-oxo-1,2,3,4-tetrahydroisoquinolin-6-yl)oxy)phenyl)-3,5-dioxo-2,3,4,5-tetrahydro-1,2,4-triazine-6-carbonitrile]
0.0062	0.093	O=C1c2ccc(Oc3c(Cl)cc(-n4ncc(=O)[nH]c4=O)cc3Cl)cc2CCN1Cc1ccc(F)c(F)c1 [Example 30, 2-(3,5-dichloro-4-((2-(3,4-difluorobenzyl)-1-oxo-1,2,3,4-tetrahydroisoquinolin-6-yl)oxy)phenyl)-1,2,4-triazine-3,5(2H,4H)-dione]
0.476	7.04	Cc1cc(-n2nc(C#N)c(=O)[nH]c2=O)cc(C)c1Oc1ccc2c(c1)CCNC2=O [Example 26, 2-(3,5-dimethyl-4-((1-oxo-1,2,3,4-tetrahydroisoquinolin-6-yl)oxy)phenyl)-3,5-dioxo-2,3,4,5-tetrahydro-1,2,4-triazine-6-carbonitrile]

From patent US20240025875A1, “A COMPOUND AS A THYROID HORMONE BETA RECEPTOR AGONIST AND USE THEREOF” (SUNSHINE LAKE PHARMA CO., LTD., priority 2020, published 2024)
